# The kinase profiling compilation of Christmann-Franck et al. (2016)
# Experiments:
# Experiment in all cases: KINOMEscan competition binding
# Conditions in all cases: compound 10.0 µM
# ACVR2B (human) = ACVR2B (human) (UniProt Q13705)
# BRSK2 (human) = BRSK2 (human) (UniProt Q8IWQ3)
# CSNK1G1 (human) = CSNK1G1 (human) (UniProt Q9HCP0)
# DAPK2 (human) = DAPK2 (human) (UniProt Q9UIK4)
# DCLK3 (human) = DCLK3 (human) (UniProt Q9C098)
# DYRK1B (human) = DYRK1B (human) (UniProt Q9Y463)
# [1] = system: FLT3 (human), P36888 [D835H]
# [2] = system: KIT (human), P10721 [D816V]
# MAP4K2 (human) = MAP4K2 (human) (UniProt Q12851)
# Sequence of MAP4K2 (human) (Q12851 whole entry, looked up): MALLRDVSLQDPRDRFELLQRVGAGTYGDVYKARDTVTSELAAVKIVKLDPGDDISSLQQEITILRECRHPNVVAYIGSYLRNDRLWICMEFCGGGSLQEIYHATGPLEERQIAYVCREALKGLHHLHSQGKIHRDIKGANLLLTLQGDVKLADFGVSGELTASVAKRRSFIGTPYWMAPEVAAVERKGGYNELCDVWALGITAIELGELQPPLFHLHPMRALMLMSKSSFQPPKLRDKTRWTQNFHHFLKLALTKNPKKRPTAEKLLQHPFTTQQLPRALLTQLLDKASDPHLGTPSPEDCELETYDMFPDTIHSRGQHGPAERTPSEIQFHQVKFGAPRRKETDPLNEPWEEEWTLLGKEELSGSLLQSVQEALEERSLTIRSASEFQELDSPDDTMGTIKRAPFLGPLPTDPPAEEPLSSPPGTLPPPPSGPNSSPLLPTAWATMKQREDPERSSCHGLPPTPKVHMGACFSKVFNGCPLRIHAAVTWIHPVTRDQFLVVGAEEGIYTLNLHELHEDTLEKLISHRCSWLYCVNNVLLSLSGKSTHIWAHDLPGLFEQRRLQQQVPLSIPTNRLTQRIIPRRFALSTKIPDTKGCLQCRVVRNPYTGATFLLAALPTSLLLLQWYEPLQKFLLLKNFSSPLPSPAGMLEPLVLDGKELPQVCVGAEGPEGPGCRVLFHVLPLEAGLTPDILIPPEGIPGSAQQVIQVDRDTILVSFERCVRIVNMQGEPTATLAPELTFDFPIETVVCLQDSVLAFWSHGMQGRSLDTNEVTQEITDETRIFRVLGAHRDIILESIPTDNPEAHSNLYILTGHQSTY
# MYLK3 (human) = MYLK3 (human) (UniProt Q32MK0)
# PIM2 (human) = PIM2 (human) (UniProt Q9P1W9)
# PIM3 (human) = PIM3 (human) (UniProt Q86V86)
# RIOK1 (human) = RIOK1 (human) (UniProt Q9BRS2)
# RIPK2 (human) = RIPK2 (human) (UniProt O43353)
# Sequence of RIPK2 (human) (O43353 whole entry, looked up): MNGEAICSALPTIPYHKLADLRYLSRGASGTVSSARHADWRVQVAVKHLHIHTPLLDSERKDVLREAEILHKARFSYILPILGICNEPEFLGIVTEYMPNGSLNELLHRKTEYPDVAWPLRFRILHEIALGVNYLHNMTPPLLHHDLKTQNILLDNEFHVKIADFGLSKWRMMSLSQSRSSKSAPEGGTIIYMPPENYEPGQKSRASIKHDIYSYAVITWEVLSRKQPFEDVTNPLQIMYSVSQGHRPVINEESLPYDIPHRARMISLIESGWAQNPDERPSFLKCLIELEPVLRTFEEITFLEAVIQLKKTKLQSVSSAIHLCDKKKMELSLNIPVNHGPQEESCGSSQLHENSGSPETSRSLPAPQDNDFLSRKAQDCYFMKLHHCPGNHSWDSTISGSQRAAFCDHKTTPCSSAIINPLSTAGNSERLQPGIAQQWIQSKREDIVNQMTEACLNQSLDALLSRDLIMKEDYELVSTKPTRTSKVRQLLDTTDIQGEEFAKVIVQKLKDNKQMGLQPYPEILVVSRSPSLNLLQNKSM
# STK17A (human) = STK17A (human) (UniProt Q9UEE5)
# Sequence of STK17A (human) (Q9UEE5 whole entry, looked up): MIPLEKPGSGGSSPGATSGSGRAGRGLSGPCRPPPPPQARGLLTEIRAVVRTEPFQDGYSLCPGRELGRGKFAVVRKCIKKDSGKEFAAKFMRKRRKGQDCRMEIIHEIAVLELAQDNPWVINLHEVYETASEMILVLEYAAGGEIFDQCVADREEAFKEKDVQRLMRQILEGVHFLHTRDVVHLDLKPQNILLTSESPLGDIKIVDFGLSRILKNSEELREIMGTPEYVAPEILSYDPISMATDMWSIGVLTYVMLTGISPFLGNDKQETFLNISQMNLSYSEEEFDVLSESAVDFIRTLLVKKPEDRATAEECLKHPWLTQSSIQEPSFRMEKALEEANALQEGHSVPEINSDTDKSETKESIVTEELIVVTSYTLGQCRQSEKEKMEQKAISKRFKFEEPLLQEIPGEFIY
# ULK2 (human) = ULK2 (human) (UniProt Q8IYT8)
# AURKB (human) = AURKB (human) (UniProt Q96GD4)
# CDK16 (human) = CDK16 (human) (UniProt Q00536)
# CDK7 (human) = CDK7 (human) (UniProt P50613)
# CLK2 (human) = CLK2 (human) (UniProt P49760)
# CLK4 (human) = CLK4 (human) (UniProt Q9HAZ1)
# Sequence of CLK4 (human) (Q9HAZ1 whole entry, looked up): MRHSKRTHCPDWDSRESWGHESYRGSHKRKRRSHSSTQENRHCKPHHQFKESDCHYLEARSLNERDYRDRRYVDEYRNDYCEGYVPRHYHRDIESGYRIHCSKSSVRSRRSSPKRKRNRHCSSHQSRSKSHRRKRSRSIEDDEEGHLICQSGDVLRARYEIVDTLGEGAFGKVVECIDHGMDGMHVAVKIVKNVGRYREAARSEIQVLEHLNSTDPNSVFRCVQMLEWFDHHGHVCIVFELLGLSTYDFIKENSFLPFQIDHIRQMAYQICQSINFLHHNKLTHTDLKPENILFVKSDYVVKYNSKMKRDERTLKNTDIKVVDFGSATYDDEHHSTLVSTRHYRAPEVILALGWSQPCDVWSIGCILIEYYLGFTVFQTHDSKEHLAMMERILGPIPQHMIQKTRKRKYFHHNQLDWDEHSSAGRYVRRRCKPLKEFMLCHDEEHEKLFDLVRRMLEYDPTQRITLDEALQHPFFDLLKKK
# [3] = system: FLT3 (human), P36888 [N841I]
# [4] = biological target: JAK1 JH2 pseudokinase (human) (UniProt P23458)
# MAPK15 (human) = MAPK15 (human) (UniProt Q8TD08)
# RPS6KA6 KD2 (human) = RPS6KA6 KD2 (human) (UniProt Q9UK32)
# STK16 (human) = STK16 (human) (UniProt O75716)
# STK24 (human) = STK24 (human) (UniProt Q9Y6E0)
# TAOK1 (human) = TAOK1 (human) (UniProt Q7L7X3)
# Sequence of TAOK1 (human) (Q7L7X3 whole entry, looked up): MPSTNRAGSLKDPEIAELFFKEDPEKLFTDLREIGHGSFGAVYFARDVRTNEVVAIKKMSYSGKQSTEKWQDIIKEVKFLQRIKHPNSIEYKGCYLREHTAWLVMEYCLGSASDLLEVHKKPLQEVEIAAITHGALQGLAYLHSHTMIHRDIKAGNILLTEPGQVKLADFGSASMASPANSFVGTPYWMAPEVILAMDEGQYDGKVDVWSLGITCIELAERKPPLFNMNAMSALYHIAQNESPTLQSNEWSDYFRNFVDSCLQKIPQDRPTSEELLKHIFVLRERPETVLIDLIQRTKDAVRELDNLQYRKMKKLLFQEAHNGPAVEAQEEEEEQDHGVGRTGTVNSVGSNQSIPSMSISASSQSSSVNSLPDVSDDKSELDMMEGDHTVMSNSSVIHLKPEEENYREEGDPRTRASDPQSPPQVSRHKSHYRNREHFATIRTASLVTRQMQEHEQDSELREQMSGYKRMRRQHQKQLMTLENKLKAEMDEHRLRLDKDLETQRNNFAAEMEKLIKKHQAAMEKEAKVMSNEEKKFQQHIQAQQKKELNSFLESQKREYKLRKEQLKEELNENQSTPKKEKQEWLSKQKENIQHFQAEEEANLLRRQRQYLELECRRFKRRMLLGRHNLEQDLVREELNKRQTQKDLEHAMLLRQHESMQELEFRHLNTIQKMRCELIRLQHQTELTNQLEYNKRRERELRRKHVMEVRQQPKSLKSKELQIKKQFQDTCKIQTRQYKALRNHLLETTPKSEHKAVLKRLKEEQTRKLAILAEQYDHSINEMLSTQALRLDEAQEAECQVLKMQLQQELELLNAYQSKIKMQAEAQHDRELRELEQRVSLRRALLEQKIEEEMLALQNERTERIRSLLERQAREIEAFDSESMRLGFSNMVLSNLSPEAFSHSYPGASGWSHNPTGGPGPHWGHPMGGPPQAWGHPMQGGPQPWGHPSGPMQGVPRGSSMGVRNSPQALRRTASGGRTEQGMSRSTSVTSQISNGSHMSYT
# TLK1 (human) = TLK1 (human) (UniProt Q9UKI8)
# TNK1 (human) = TNK1 (human) (UniProt Q13470)
# [5] = biological target: TYK2 JH2 pseudokinase (human) (UniProt P29597)
# CAMKK1 (human) = CAMKK1 (human) (UniProt Q8N5S9)
# CHUK (human) = CHUK (human) (UniProt O15111)
# DMPK (human) = DMPK (human) (UniProt Q09013)
# RIOK3 (human) = RIOK3 (human) (UniProt O14730)
# [6] = system: EGFR (human), P00533 [747-751 del / S ins]
# MAP2K3 (human) = MAP2K3 (human) (UniProt P46734)
# PHKG2 (human) = PHKG2 (human) (UniProt P15735)
# PRKD3 (human) = PRKD3 (human) (UniProt O94806)
# Sequence of BRSK2 (human) (Q8IWQ3 whole entry, looked up): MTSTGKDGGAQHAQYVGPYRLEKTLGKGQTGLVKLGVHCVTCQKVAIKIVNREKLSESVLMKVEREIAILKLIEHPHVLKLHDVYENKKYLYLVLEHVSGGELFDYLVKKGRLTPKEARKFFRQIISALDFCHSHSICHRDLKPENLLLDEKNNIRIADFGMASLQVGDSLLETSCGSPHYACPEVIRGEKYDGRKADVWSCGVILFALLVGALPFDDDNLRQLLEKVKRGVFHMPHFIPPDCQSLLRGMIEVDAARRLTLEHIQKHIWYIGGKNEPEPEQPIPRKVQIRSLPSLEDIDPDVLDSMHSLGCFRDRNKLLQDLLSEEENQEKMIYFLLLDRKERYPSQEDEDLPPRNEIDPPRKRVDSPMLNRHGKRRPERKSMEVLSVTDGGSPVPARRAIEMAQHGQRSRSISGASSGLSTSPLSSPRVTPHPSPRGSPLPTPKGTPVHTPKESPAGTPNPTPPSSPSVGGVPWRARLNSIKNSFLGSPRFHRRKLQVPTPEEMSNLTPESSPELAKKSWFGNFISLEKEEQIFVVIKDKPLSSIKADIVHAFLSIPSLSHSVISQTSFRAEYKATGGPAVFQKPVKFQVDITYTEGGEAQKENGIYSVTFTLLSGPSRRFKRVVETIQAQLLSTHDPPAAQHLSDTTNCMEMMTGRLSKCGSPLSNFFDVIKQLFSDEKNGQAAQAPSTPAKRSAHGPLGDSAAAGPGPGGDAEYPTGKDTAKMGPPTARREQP
# Sequence of DAPK2 (human) (Q9UIK4 whole entry, looked up): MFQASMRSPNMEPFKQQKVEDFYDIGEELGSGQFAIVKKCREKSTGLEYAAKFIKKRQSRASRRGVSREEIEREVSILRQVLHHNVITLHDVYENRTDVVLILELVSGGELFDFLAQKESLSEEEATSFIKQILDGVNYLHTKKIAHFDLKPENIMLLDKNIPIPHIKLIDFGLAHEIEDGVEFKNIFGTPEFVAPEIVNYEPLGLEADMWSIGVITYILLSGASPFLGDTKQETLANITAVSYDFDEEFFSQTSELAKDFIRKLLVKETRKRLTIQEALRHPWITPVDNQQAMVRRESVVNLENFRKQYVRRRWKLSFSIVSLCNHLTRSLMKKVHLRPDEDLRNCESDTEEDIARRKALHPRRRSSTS
# Sequence of DYRK1B (human) (Q9Y463 whole entry, looked up): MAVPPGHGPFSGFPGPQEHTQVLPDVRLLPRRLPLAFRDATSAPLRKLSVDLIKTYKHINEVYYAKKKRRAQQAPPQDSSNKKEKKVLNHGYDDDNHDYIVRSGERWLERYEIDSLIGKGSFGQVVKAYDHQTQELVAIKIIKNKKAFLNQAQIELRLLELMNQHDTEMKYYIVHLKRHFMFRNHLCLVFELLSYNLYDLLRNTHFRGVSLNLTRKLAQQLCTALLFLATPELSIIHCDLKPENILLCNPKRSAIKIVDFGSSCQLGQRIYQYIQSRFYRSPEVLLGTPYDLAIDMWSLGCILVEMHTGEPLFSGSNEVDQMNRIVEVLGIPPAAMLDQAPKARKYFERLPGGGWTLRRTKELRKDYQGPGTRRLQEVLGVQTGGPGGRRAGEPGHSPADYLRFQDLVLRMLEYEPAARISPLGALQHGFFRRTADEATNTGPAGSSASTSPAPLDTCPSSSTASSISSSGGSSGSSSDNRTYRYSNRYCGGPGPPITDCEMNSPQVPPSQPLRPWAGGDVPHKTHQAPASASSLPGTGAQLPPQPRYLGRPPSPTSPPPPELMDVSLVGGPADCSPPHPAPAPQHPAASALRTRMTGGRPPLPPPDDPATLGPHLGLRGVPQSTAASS
SMILES,"kinase still bound, per cent of control (ACVR2B (human)) [%]","kinase still bound, per cent of control (BRSK2 (human)) [%]","kinase still bound, per cent of control (DAPK2 (human)) [%]","kinase still bound, per cent of control (DCLK3 (human)) [%]","kinase still bound, per cent of control (DYRK1B (human)) [%]","kinase still bound, per cent of control (MAP4K2 (human)) [%]","kinase still bound, per cent of control (MYLK3 (human)) [%]","kinase still bound, per cent of control (PIM2 (human)) [%]","kinase still bound, per cent of control (PIM3 (human)) [%]","kinase still bound, per cent of control (RIOK1 (human)) [%]","kinase still bound, per cent of control (RIPK2 (human)) [%]","kinase still bound, per cent of control (STK17A (human)) [%]","kinase still bound, per cent of control (ULK2 (human)) [%]","kinase still bound, per cent of control (CDK16 (human)) [%]","kinase still bound, per cent of control (CDK7 (human)) [%]","kinase still bound, per cent of control (CLK2 (human)) [%]","kinase still bound, per cent of control (CLK4 (human)) [%]","kinase still bound, per cent of control (MAPK15 (human)) [%]","kinase still bound, per cent of control (TAOK1 (human)) [%]","kinase still bound, per cent of control [5] [%]",further results
CS(=O)(=O)Nc1ccc(-c2ncc(/C=C3\SC(=N)NC3=O)s2)cc1,16,28,3.2,22,3.1,29,2.6,4.3,2,27,6.6,2,24,–,–,–,–,–,–,–,"kinase still bound, per cent of control (CSNK1G1 (human)): 22%; kinase still bound, per cent of control [1]: 23%; kinase still bound, per cent of control [2]: 4.4%"
CN1C(=O)[C@H]2CCC[C@H]2N(C2CCCC2)c2nc(Nc3ccc(C(N)=O)cc3)ncc21,–,–,8.6,1.4,2.8,13,5.5,–,6.4,26,–,0.05,17,18,3.7,1,5.2,18,8.7,15,"kinase still bound, per cent of control (AURKB (human)): 8.6%; kinase still bound, per cent of control (CSNK1G1 (human)): 23%; kinase still bound, per cent of control [1]: 11%; kinase still bound, per cent of control [3]: 5.2%; kinase still bound, per cent of control [4]: 9.2%; kinase still bound, per cent of control (RPS6KA6 KD2 (human)): 13%; kinase still bound, per cent of control (STK16 (human)): 4.8%; kinase still bound, per cent of control (STK24 (human)): 16%; kinase still bound, per cent of control (TLK1 (human)): 8.6%; kinase still bound, per cent of control (TNK1 (human)): 2%"
N=C1NC(=O)/C(=C/c2ccc(-c3ccc(C(N)=O)cc3O)o2)S1,22,17,24,2.7,5.6,–,22,0.8,5.4,–,–,0.3,–,0.65,1,19,6.4,0.1,2.2,0.25,"kinase still bound, per cent of control (CAMKK1 (human)): 16%; kinase still bound, per cent of control (CHUK (human)): 16%; kinase still bound, per cent of control (DMPK (human)): 14%"
N=C1NC(=O)/C(=C/c2c[nH]c(=O)c(-c3ccc(N4CCNCC4)nc3)c2)S1,–,–,2.3,13,1,32,–,1.8,8,10,27,0.35,4.8,–,8.8,2.8,16,4,32,–,"kinase still bound, per cent of control (DMPK (human)): 18%; kinase still bound, per cent of control (RIOK3 (human)): 9.4%"
N=C1NC(=O)/C(=C/c2ccc(-c3ccccc3O)o2)S1,15,29,3.2,2.9,1.8,–,29,1.4,2.1,21,–,0.4,12,0.15,1.4,0.9,5.2,0.3,0,–,"kinase still bound, per cent of control (CAMKK1 (human)): 13%; kinase still bound, per cent of control (CHUK (human)): 9.5%; kinase still bound, per cent of control [6]: 31%; kinase still bound, per cent of control (MAP2K3 (human)): 3.4%; kinase still bound, per cent of control (PHKG2 (human)): 16%; kinase still bound, per cent of control (PRKD3 (human)): 28%; kinase still bound, per cent of control (RIOK3 (human)): 20%"
N=C1NC(=O)/C(=C/c2ccc(-c3ccc(F)cc3O)o2)S1,16,23,4.1,1,3.6,–,16,1.4,4.7,23,34,0.3,14,0.1,0.95,2.8,2.1,0.1,0,31,"kinase still bound, per cent of control (CAMKK1 (human)): 14%; kinase still bound, per cent of control (CHUK (human)): 15%; kinase still bound, per cent of control [6]: 16%; kinase still bound, per cent of control (MAP2K3 (human)): 3.2%; kinase still bound, per cent of control (PHKG2 (human)): 15%"
N=C1NC(=O)/C(=C/c2ccc(-c3csc4ccccc34)o2)S1,10,18,14,26,25,–,21,0.3,5.4,–,–,0.05,–,–,–,15,25,7.6,18,8.5,"kinase still bound, per cent of control [4]: 19%; kinase still bound, per cent of control (MAP2K3 (human)): 20%; kinase still bound, per cent of control (RPS6KA6 KD2 (human)): 18%; kinase still bound, per cent of control (STK24 (human)): 18%; kinase still bound, per cent of control (TLK1 (human)): 11%; kinase still bound, per cent of control (TNK1 (human)): 31%"
